Experimental data as given in paper PMC7998700, “Mycobacterial Epoxide Hydrolase EphD Is Inhibited by Urea and Thiourea Derivatives” (International Journal of Molecular Sciences, 2021).

Key:
EphF [1] = target: T1, EphF (Mycobacterium tuberculosis, UniProt P96811); experiment: radio-TLC epoxide hydrolase assay, E. coli lysate supernatant; assay type: biochemical; settings: substrate [14C]-9,10-cis-epoxystearic acid; 50 mM Tris-HCl pH 7.5, 37 °C, 15 min; without EthA; 2% DMSO
EphD [2] = target: T2, EphD (Mycobacterium tuberculosis, UniProt P9WGS3); experiment: as above; assay type: biochemical; settings: substrate [14C]-9,10-cis-epoxystearic acid; 50 mM Tris-HCl pH 7.5, 37 °C, 15 min; without EthA; 2% DMSO
T2 sequence (P9WGS3 whole entry): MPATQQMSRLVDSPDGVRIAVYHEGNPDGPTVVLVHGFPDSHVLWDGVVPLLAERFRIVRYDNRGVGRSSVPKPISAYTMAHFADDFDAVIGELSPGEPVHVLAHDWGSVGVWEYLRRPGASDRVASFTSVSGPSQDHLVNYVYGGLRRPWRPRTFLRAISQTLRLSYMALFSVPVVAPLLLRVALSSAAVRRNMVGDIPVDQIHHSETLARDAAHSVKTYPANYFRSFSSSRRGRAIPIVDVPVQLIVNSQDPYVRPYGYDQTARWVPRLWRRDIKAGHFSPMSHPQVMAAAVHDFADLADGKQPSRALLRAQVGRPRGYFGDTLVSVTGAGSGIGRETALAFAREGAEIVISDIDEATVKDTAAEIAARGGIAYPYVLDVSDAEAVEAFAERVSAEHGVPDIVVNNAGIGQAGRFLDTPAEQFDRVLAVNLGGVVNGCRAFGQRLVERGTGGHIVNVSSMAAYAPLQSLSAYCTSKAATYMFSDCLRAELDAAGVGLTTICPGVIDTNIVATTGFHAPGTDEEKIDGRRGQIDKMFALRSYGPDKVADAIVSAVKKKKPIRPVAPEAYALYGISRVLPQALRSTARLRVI

EphA = EphA (Mycobacterium tuberculosis, UniProt I6YGS0)
EphA, sequence (I6YGS0 whole entry): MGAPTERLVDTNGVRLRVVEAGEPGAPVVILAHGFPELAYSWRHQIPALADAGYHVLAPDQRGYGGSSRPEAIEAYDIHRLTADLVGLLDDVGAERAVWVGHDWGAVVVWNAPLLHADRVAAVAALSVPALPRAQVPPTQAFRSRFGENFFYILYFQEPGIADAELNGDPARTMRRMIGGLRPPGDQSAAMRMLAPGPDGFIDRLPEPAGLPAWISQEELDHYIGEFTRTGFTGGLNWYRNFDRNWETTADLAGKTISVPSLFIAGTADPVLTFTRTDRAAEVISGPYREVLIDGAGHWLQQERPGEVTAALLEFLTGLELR

EphF [3] = target: T1, EphF
EphE = EphE (Mycobacterium tuberculosis, UniProt I6YCQ4)
EphE, sequence (I6YCQ4 entry or part of it): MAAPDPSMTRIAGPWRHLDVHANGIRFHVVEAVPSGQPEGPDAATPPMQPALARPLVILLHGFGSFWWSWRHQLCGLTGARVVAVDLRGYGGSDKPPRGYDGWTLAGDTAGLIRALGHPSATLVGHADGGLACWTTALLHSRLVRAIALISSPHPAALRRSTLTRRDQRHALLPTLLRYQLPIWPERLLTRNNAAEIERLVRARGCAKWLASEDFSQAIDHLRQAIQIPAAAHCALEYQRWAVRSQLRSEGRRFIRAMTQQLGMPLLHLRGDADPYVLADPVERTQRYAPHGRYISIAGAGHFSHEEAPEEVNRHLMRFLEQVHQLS

EphG = EphG (Mycobacterium tuberculosis, UniProt O33283)
EphG, sequence (O33283 whole entry): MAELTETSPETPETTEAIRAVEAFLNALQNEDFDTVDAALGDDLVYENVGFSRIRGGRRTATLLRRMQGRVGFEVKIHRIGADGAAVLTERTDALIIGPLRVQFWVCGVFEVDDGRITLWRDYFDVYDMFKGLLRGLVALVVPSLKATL

EphB = EphB (Mycobacterium tuberculosis, UniProt I6YC03); experiment: radio-TLC substrate conversion to diol, E. coli lysate supernatant; assay type: biochemical; settings: 50 mM Tris-HCl pH 7.5, 37 °C; labelled compound
EphB, sequence (I6YC03 whole entry): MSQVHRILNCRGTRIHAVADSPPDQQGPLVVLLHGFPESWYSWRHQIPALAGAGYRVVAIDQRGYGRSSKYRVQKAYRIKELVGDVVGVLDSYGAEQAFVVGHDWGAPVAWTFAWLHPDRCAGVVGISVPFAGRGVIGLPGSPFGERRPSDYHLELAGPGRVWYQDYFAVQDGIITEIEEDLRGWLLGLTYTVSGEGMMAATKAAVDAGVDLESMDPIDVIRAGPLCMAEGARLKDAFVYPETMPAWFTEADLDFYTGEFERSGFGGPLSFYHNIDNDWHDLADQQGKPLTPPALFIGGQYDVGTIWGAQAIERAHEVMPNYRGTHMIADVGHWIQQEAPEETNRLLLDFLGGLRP

EphD [4] = target: T2, EphD

T1 sequence (P96811 entry or part of it): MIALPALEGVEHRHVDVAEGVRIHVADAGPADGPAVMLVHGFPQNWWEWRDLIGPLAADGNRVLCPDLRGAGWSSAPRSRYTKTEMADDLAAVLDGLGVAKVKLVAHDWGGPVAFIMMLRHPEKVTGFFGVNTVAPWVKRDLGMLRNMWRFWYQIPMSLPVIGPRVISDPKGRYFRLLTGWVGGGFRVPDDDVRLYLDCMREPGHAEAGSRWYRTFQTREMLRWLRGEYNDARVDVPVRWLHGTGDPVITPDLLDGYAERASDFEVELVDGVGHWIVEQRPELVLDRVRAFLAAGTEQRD

Row | Structure (SMILES) | % inhibition at 10 μg/mL (EphF [1]) | % inhibition at 10 μg/mL (EphD [2]) | radio-TLC substrate conversion to diol, E. coli lysate supernatant (EphA) | radio-TLC substrate conversion to diol, E. coli lysate supernatant (EphF [3]) | radio-TLC substrate conversion to diol, E. coli lysate supernatant (EphE) | radio-TLC substrate conversion to diol, E. coli lysate supernatant (EphG) | radio-TLC substrate conversion to diol, E. coli lysate supernatant (EphB) | radio-TLC substrate conversion to diol, E. coli lysate supernatant (EphD [4])
1 | CC(C)CCOc1ccc(NC(=S)Nc2ccc(OCCC(C)C)cc2)cc1 [ISO, 4,4′-diisoamyloxydiphenylthiourea] | The activities of EphD and EphF are inhibited by ISO | The activities of EphD and EphF are inhibited by ISO | – | – | – | – | – | –
2 | CCCCCCCC[C@H]1O[C@H]1CCCCCCCC(=O)O [9,10-cis-epoxystearic acid] | – | – | The EH activity in each reaction was expressed as a substrate conversion percentage | The EH activity in each reaction was expressed as a substrate conversion percentage | The EH activity in each reaction was expressed as a substrate conversion percentage | The EH activity in each reaction was expressed as a substrate conversion percentage | The EH activity in each reaction was expressed as a substrate conversion percentage | The EH activity in each reaction was expressed as a substrate conversion percentage
